Each structure is given as a SMILES string. Starred links: 1 amine or outer side, 2 acyl side, 3 side chain; linkers in the order of their positions; H or OH if unused. Non-standard residues stand in square brackets, D forms with d. Residues, ends and D or L forms follow the SMILES beside them. *: point of attachment. Hexanoyl(5S-NH,4S-OH,6-Ph) = O=C(CC[C@H](O)[C@H](Cc1ccccc1)N[*:1])[*:2]; Isovaleryl = CC(C)CC(=O)*; Boc = CC(C)(C)OC(=O)* Where only a bound is given, the exact number is not on record here.

These results are taken from US10202418B2, “Hydroxy-ethylene derivatives for the treatment of arthrosis” (MERCK PATENT GMBH, priority 2013, dated 2019).

One experiment concerns the target recombinant human renin (Homo sapiens (Human), UniProt P00797). Put plainly: In-vitro fluorescence assay for identification of renin-inhibitory activity. In kind it is biochemical. To be noted: renin 10 nM, pH 7.2. How it is done: In order to identify modulators of renin activity, a continuous enzymatic test was carried out with a synthetic peptide which carries a fluorescent group Edans (=(5-(aminoethyl)aminonaphthalenesulfonate) which is quenched by energy transfer from a Dabcyl (4′-dimethylaminoazobenzene-4-carboxylate) group on the same molecule, in Greiner 384-well microtitre plates. Cleavage of the peptidic substrate by renin causes an increase in the fluorescence intensity. In order to determine the efficacy of substances, the time-dependent increase in the fluorescence intensity in the presence of the substance was compared with the time-dependent increase in fluorescence in the absence of substances. The reference substance used was renin inhibitor 2 (Z-Arg-Arg-Pro-Phe-His-Sta-Ile-His N-Boc-Lys methyl ester Z) (Sigma-Aldrich). The substrate used was renin FRET substrate I (DABCYL-g-Abu-Ile-His-Pro-Phe-His-Leu-Val-Ile-His-Thr EDANS) (Anaspec, Fremont Calif.). The enzyme employed was recombinant human renin (Proteos, Kalamazoo, Mich.) in a final concentration of 10 nM. The test was carried out in 50 mM Mops buffer, 1.5% (v/v) of DMSO, 0.1% (w/v) of Igepal®, pH 7.2, 0.5% (w/v) of BSA. 2 μl of each substance solution with serially diluted substance concentration were added to in each case 4 μl of renin solution and incubated at room temperature for 15 min. The reaction was started by addition of 4 μl of substrate solution (final concentration 5 μM). After carrying out a starting-point fluorescence measurement (excitation wavelength 340 nm/emission wavelength 495 nm) using an Envision multilabel reader (Perkin Elmer), the reaction was incubated at 37° C. for 60 min. The amount of peptide fragment cleaved off during the reaction time was subsequently measured by determination of the increase in the fluorescence intensity at 495 nm (excitation wavelength 340 nm).

Experiment [1] concerns the target cathepsin D isolated from the human liver (Homo sapiens (Human), UniProt P07339). Nature of the experiment: In-vitro fluorescence assay for identification of cathepsin D inhibitors. It counts as biochemical. The conditions noted are these: cathepsin D 1.4 nM, pH 5.5; values in E notation; read-out: Cath D IC50. Here is the method:
In order to identify modulators of cathepsin D activity, a continuous enzymatic test was carried out with a synthetic peptide which carries a fluorescent group (MCA=(7-methoxycoumarin-4-yl)acetyl) which is quenched by energy transfer from a Dpn (2,4 dinitrophenyl) group on the same molecule, in Greiner 384-well nb microtitre plates. Cleavage of the peptidic substrate by cathepsin D causes an increase in the fluorescence intensity. In order to determine the efficacy of substances, the time-dependent increase in the fluorescence intensity in the presence of the substance was compared with the time-dependent increase in fluorescence in the absence of substances. The reference substance used was pepstatin A (Sigma-Aldrich). The substrate used was MCA-GKPILFFRLK(Dnp)d-R—NH2 (Enzo Life Sciences, Lor-rach). The enzyme employed was cathepsin D isolated from the human liver (Sigma-Aldrich) in a final concentration of 1.4 nM. The test was carried out in 100 mM sodium acetate buffer, 1.25% (v/v) of DMSO, 0.25% (w/v) of Chaps, pH 5.5. 2 μl of each substance solution with serially diluted substance concentration were added to in each case 4 μl of cathepsin D solution and incubated at room temperature for 10 min. The reaction was started by addition of 2 μl of substrate solution (final concentration 5 μM). After carrying out a starting-point fluorescence measurement (excitation wavelength 340 nm/emission wavelength 450 nm) using an Envision multilabel reader (Perkin Elmer), the reaction was incubated at room temperature for 60 min. The amount of peptide fragment cleaved off during the reaction time was subsequently measured by determination of the increase in the fluorescence intensity at 450 nm (excitation wavelength 340 nm).
The IC50 values of the compounds according to the invention can be obtained from Table 2 from Example 1.

Sequence of cathepsin D isolated from the human liver (P07339 65-161): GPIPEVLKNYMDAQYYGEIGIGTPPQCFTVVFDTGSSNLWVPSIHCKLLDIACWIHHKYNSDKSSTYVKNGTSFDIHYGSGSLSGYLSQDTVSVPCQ
Sequence of cathepsin D isolated from the human liver (P07339 169-412): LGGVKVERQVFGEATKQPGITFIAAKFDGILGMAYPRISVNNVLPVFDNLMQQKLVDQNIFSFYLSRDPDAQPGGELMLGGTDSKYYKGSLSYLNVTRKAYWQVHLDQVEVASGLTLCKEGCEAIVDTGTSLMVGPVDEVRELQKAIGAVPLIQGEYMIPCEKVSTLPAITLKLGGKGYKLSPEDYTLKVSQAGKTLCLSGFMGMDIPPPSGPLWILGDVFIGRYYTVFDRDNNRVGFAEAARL
Sequence of recombinant human renin (P00797 67-406): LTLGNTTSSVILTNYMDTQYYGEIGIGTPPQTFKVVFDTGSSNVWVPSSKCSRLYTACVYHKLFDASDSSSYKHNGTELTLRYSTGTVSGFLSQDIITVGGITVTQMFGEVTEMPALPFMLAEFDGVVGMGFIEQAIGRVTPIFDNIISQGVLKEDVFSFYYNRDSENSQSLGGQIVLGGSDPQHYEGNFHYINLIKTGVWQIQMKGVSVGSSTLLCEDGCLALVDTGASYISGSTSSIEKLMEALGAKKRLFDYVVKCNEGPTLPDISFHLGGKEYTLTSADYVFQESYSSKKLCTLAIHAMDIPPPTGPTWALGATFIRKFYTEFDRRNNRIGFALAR

One may read the IC50 as the concentration that gives 50% inhibition. For the molecule `CC[C@H](C)[C@H](NC(=O)CC[C@H](O)[C@H](Cc1ccccc1)NC(=O)[C@@H](NC(=O)[C@H](CC(C)C)NC(=O)OC(C)(C)C)C(C)C)C(=O)NCc1cnc(C)nc1N` [Compound A1, {(S)-1-[(S)-1-((1S,2S)-4-{(1S,2S)-1-[(4-Amino-2-methylpyrimidin-5-yl-methyl)carbamoyl]-2-methylbutylcarbamoyl}-1-benzyl-2-hydroxybutyl-carbamoyl)-2-methylpropylcarbamoyl]-3-methylbutyl}carbamic acid tert-butyl ester], the results for the IC50 (at recombinant human renin (values in E notation); in experiment [1]) were 0.32 µM and 0.43 µM, respectively.

For the molecule `CC[C@H](C)[C@H](NC(=O)CC[C@H](O)[C@H](Cc1ccccc1)NC(=O)[C@@H](NC(=O)[C@H](CC(C)C)NC(=O)OC(C)(C)C)C(C)C)C(=O)N[C@H](C(=O)OC)C(C)C` [Compound A2, (S)-2-((2S,3S)-2-{(4S,5S)-5-[(S)-2-((S)-2-tert-Butoxycarbonylamino-4-methylpentanoylamino)-3-methylbutyrylamino]-4-hydroxy-6-phenyl-hexanoylamino}-3-methylpentanoylamino)-3-methylbutyric acid methyl ester] (Boc-LV[Hexanoyl(5S-NH,4S-OH,6-Ph)]IV-OMe), the figures for the IC50 (at recombinant human renin (values in E notation); in experiment [1]) were 1.1 µM and 0.041 µM, respectively. Take `CC(C)[C@H](NC(=O)Cc1cccc(OC(F)(F)F)c1)C(=O)N[C@@H](Cc1ccccc1)[C@@H](O)CCC(=O)NCCc1ccccc1` [Compound A3, (4S,5S)-4-Hydroxy-5-{(S)-3-methyl-2-[2-(3-trifluoromethoxyphenyl)-acetylamino]butyrylamino}-6-phenylhexanoic acid phenethylamide]: at recombinant human renin, the IC50 is > 30 µM.

With `COc1ccc(OC(F)(F)F)cc1CC(=O)N[C@H](C(=O)N[C@@H](Cc1ccccc1)[C@@H](O)CCC(=O)NCCc1ccccc1)C(C)C` [Compound A4, (4S,5S)-4-Hydroxy-5-{(S)-2-[2-(2-methoxy-5-trifluoromethoxyphenyl)-acetylamino]-3-methylbutyrylamino}-6-phenylhexanoic acid phenethyl-amide], the IC50 on recombinant human renin was > 30 µM; in experiment [1], 4 µM. For the molecule `COc1ccc(CC(=O)N[C@H](C(=O)N[C@@H](Cc2ccccc2)[C@@H](O)CCC(=O)NCCc2ccccc2)C(C)C)cc1OC` [Compound A5, (4S,5S)-5-{(S)-2-[2-(3,4-Dimethoxyphenyl)acetylamino]-3-methylbutyryl-amino}-4-hydroxy-6-phenylhexanoic acid phenethylamide], the IC50 on recombinant human renin was > 30 µM.

Turning to `CC(C)[C@H](NC(=O)Cc1cccc(Oc2ccccc2)c1)C(=O)N[C@@H](Cc1ccccc1)[C@@H](O)CCC(=O)NCCc1ccccc1` [Compound A6, (4S,5S)-4-Hydroxy-5-{(S)-3-methyl-2-[2-(3-phenoxyphenyl)acetylamino]-butyrylamino}-6-phenylhexanoic acid phenethylamide], the IC50 was > 30 µM at recombinant human renin and 12 µM in experiment [1]. On to `COc1ccc(CC(=O)N[C@H](C(=O)N[C@@H](Cc2ccccc2)[C@@H](O)CCC(=O)NCCc2ccccc2)C(C)C)cc1` [Compound A7, (4S,5S)-4-Hydroxy-5-{(S)-2-[2-(4-methoxyphenyl)acetylamino]-3-methyl-butyrylamino}-6-phenylhexanoic acid phenethylamide], for which the IC50 on recombinant human renin was > 30 µM. Same read-out and setting: the figure for `COc1cccc(CC(=O)N[C@H](C(=O)N[C@@H](Cc2ccccc2)[C@@H](O)CCC(=O)NCCc2ccccc2)C(C)C)c1` [Compound A8, (4S,5S)-4-Hydroxy-5-{(S)-2-[2-(3-methoxyphenyl)acetylamino]-3-methyl-butyrylamino}-6-phenylhexanoic acid phenethylamide] is > 30 µM; for `COc1ccccc1CC(=O)N[C@H](C(=O)N[C@@H](Cc1ccccc1)[C@@H](O)CCC(=O)NCCc1ccccc1)C(C)C` [Compound A9, (4S,5S)-4-Hydroxy-5-{(S)-2-[2-(2-methoxyphenyl)acetylamino]-3-methyl-butyrylamino}-6-phenylhexanoic acid phenethylamide] it is > 30 µM; for `Cc1ccc(OCC(=O)N[C@H](C(=O)N[C@@H](Cc2ccccc2)[C@@H](O)CCC(=O)NCCc2ccccc2)C(C)C)cc1C` [Compound A10, (4S,5S)-5-{(S)-2-[2-(3,4-Dimethylphenoxy)acetylamino]-3-methylbutyryl-amino}-4-hydroxy-6-phenylhexanoic acid phenethylamide] it is > 30 µM.

With `CC(C)[C@H](NC(=O)Cc1cccc2ccccc12)C(=O)N[C@@H](Cc1ccccc1)[C@@H](O)CCC(=O)NCCc1ccccc1` [Compound A12, (4S,5S)-4-Hydroxy-5-[(S)-3-methyl-2-(2-naphthalen-1-ylacetylamino)-butyrylamino]-6-phenylhexanoic acid phenethylamide], the IC50 at recombinant human renin is > 30 µM. Turning to `CC(C)[C@H](NC(=O)C(c1ccccc1)c1ccccc1)C(=O)N[C@@H](Cc1ccccc1)[C@@H](O)CCC(=O)NCCc1ccccc1` [Compound A13, (4S,5S)-5-((S)-2-Diphenylacetylamino-3-methylbutyrylamino)-4-hydroxy-6-phenylhexanoic acid phenethylamide], the IC50 at recombinant human renin was > 30 µM; in experiment [1] it was 4.3 µM.

Take `Cc1cccc(C)c1NC(=O)CC[C@H](O)[C@H](Cc1ccccc1)NC(=O)[C@@H](NC(=O)Cc1cccc(Oc2ccccc2)c1)C(C)C` [Compound A14, (4S,5S)-4-Hydroxy-5-{(S)-3-methyl-2-[2-(3-phenoxyphenyl)acetylamino]-butyrylamino}-6-phenylhexanoic acid (2,6-dimethylphenyl)amide]: the IC50 at recombinant human renin is > 30 µM. Take `CC(C)[C@H](NC(=O)Cc1cccc(Oc2ccccc2)c1)C(=O)N[C@@H](Cc1ccccc1)[C@@H](O)CCC(=O)NCc1ccccc1` [Compound A15, (4S,5S)-4-Hydroxy-5-{(S)-3-methyl-2-[2-(3-phenoxyphenyl)acetylamino]-butyrylamino}-6-phenylhexanoic acid benzylamide]: the IC50 on recombinant human renin was > 30 µM.

With `CC(C)[C@H](NC(=O)Cc1cccc(Oc2ccccc2)c1)C(=O)N[C@@H](Cc1ccccc1)[C@@H](O)CCC(=O)N1CCc2ccccc21` [Compound A16, (S)-N-[(1S,2S)-1-Benzyl-5-(2,3-dihydroindol-1-yl)-2-hydroxy-5-oxopentyl]-3-methyl-2-[2-(3-phenoxyphenyl)acetylamino]butyramide], at recombinant human renin, the IC50 is > 30 µM. Turning to `COC(=O)[C@@H](NC(=O)[C@H](Cc1ccccc1)NC(=O)CC[C@H](O)[C@H](Cc1ccccc1)NC(=O)[C@@H](NC(=O)[C@H](CC(C)C)NC(=O)CC(C)C)C(C)C)C(C)C` [Compound A17, (S)-2-[(S)-2-((4S,5S)-4-Hydroxy-5-{(S)-3-methyl-2-[(S)-4-methyl-2-(3-methylbutyrylamino)pentanoylamino]butyrylamino}-6-phenylhexanoyl-amino)-3-phenylpropionylamino]-3-methylbutyric acid methyl ester] (Isovaleryl-LV[Hexanoyl(5S-NH,4S-OH,6-Ph)]FV-OMe), the IC50 is > 30 µM at recombinant human renin and 0.255 µM in experiment [1].

As to `CCOc1cccc(CC(=O)N[C@H](C(=O)N[C@@H](Cc2ccccc2)[C@@H](O)CCC(=O)NCCc2ccccc2)C(C)C)c1` [Compound A19, (4S,5S)-5-{(S)-2-[2-(3-Ethoxyphenyl)acetylamino]-3-methylbutyrylamino}-4-hydroxy-6-phenylhexanoic acid phenethylamide], at recombinant human renin, the IC50 is > 30 µM.

As for `CC(C)[C@H](NC(=O)CCCc1ccccc1)C(=O)N[C@@H](Cc1ccccc1)[C@@H](O)CCC(=O)NCCc1ccccc1` [Compound A20, (4S,5S)-4-Hydroxy-5-[(S)-3-methyl-2-(4-phenylbutyrylamino)butyryl-amino]-6-phenylhexanoic acid phenethylamide], on recombinant human renin, the IC50 was > 30 µM.
